Test results published in US8058243B2, “Method for treating a brain cancer with ifenprodil” (HSC Research and Development Limited Partnership, priority 2006, dated 2011).
Structures can show the parent of a compound that is named as a salt. Where two headings read alike, the source gives them in different places.

Tested on: murine neural precursor cells (neurosphere cultures)
Assay: HTS of LOPAC library against secondary neurosphere cultures, MTT proliferation assay at 3 μM, day 7 (z score, P value)
Format: cell-based, mouse
[1] = LOPAC primary screen, neurosphere MTT proliferation, 3 μM, day 7
[2] = yes/no: significantly inhibited neurosphere proliferation (P<0.01) in the primary screen
[3] = primary LOPAC screen, 3 μM, MTT, neurosphere proliferation
[4] = yes/no: significantly inhibited neurosphere proliferation in the primary screen
[5] = yes = significantly inhibited neurosphere proliferation (P<0.01) in the primary screen
[6] = LOPAC screen, neurosphere MTT proliferation, 3 μM, day 7
[7] = yes/no: significantly inhibited neurosphere proliferation (P<0.01) in primary screen
[8] = LOPAC library screen, 3 μM, MTT, secondary neurosphere cultures, day 7
[9] = LOPAC library screen, 3 μM, MTT, neurosphere cultures
[10] = yes/no: significantly inhibited neurosphere proliferation in primary screen

**Q.** Which “Z Score” value does the source give for CN1C2CCC1CC(OC(c1ccccc1)c1ccc(Cl)cc1)C2.Cl (centres unmarked) here?
**A.** −9.672

**Q.** What about the Z score [1] of the same compound?
**A.** −9.672

**Q.** What about the Activity [2] of the same compound?
**A.** yes

**Q.** How did the Z score [3] turn out when C[C@]12CC[C@@H](O)C[C@@H]1CC[C@@H]1[C@@H]2CC[C@]2(C)[C@@H](O)CC[C@@H]12 [5alpha-Androstane-3alpha,17beta-diol] was run?
**A.** −0.381

**Q.** What about the Activity [4] of the same compound?
**A.** no

**Q.** Which results are given for CN(N=O)c1ccc(O)c(O)c1 [Me-3,4-dephostatin]?
**A.** Z Score: 0.5834; Z score [1]: 0.583; Activity [5]: no

**Q.** With CC1=C[C@@H]2c3cccc4[nH]cc(c34)C[C@H]2N(C)C1 [Agroclavine] as the compound, how does the “Z Score” value read?
**A.** −0.9109

**Q.** What about the Z score [3] of the same compound?
**A.** −0.911

**Q.** And the Activity [4]?
**A.** no

**Q.** How did the “Z Score” value turn out when Nc1ncnc2c1ncn2[C@@H]1O[C@H](C(=O)NC2CC2)[C@@H](O)[C@H]1O [5′-(N-Cyclopropyl)carboxamidoadenosine] was run?
**A.** −1.701

**Q.** What about the Z score [6] of the same compound?
**A.** −1.701

**Q.** What about the Activity [7] of the same compound?
**A.** no

**Q.** N#C/C(=C\c1ccc(O)c(O)c1)C(=O)NCc1ccccc1 [Tyrphostin AG 490] was tested. Which “Z Score” value (LOPAC library screen at 3 μM, MTT, secondary neurosphere cultures, screened in singlets) did it give?
**A.** 1.802

**Q.** What about the Z score [3] of the same compound?
**A.** 1.802

**Q.** What about the Activity [4] of the same compound?
**A.** no

**Q.** What does the source list for Dextrorphan D-tartrate?
**A.** Activity: no; Z Score: 1.569; Z score: 1.569

**Q.** For Cc1nccc2c1[nH]c1ccccc12 [Harmane], which “Z Score” value is on record?
**A.** −1.403

**Q.** What about the Z score [1] of the same compound?
**A.** −1.403

**Q.** Which “Z Score” value [8] does the source give for Clc1cnc(Oc2ccc(Oc3ncc(Cl)cc3Cl)cc2)c(Cl)c1 [TCPOBOP] here?
**A.** −2.008

**Q.** And the Z score [1]?
**A.** −2.008

**Q.** What about the Activity [5] of the same compound?
**A.** no

**Q.** Which results are given for C[C@]12CC[C@@H]3c4ccc(O)cc4CC[C@H]3[C@@H]1CCC2=O [Estrone]?
**A.** Z Score [9]: 0.04081; Z score [1]: 0.041

**Q.** With Br.COc1ccc(-c2ccc(=N)n(CCCC(=O)O)n2)cc1 [SR-95531] as the compound, how does the Activity read?
**A.** no

**Q.** What about the “Z Score” value of the same compound?
**A.** −0.9574

**Q.** And the Z score?
**A.** −0.957

**Q.** For NCC(O)(CS(=O)(=O)O)c1ccc(Cl)cc1 (centres unmarked) [2-Hydroxysaclofen], which “Z Score” value [8] is on record?
**A.** −1.624

**Q.** And the Z score [1]?
**A.** −1.624

**Q.** And the Activity [5]?
**A.** no

**Q.** With CC[C@@H]1C(=O)OC[C@@H]1Cc1cncn1C.Cl [(+)-Pilocarpine hydrochloride] as the compound, how does the “Z Score” value [8] read?
**A.** −1.548

**Q.** What about the Z score [1] of the same compound?
**A.** −1.548

**Q.** And the Activity [5]?
**A.** no

**Q.** Cl.OC[C@H]1NC[C@H](O)[C@@H](O)[C@@H]1O [1-Deoxynojirimycin hydrochloride] was tested. Which “Z Score” value [9] did it give?
**A.** 1.242

**Q.** What about the Z score [6] of the same compound?
**A.** 1.242

**Q.** What about the Activity [7] of the same compound?
**A.** no

**Q.** Which Activity does the source give for CC1Cc2cc3c(cc2C(c2ccc(N)cc2)=NN1)OCO3 (centres unmarked) [GYKI 52895] here?
**A.** no

**Q.** And the “Z Score” value?
**A.** −1.258

**Q.** What about the Z score [1] of the same compound?
**A.** −1.258

**Q.** (+)-Nicotine (+)-di-p-toluoyl tartrate was tested. Which Activity did it give?
**A.** no

**Q.** What about the “Z Score” value of the same compound?
**A.** −2.233

**Q.** What about the Z score of the same compound?
**A.** −2.233

**Q.** Which Z score [1] does the source give for NC[C@H](O)c1ccc(O)c(O)c1.O=C(O)C(O)C(O)C(=O)O (racemic) [(±)-Norepinephrine (+)bitartrate] here?
**A.** 0.099

**Q.** What about the Activity [10] of the same compound?
**A.** no

**Q.** With O=C(O)Cc1ccc(O)c(O)c1 [3,4-Dihydroxyphenylacetic acid] as the compound, how does the “Z Score” value read?
**A.** −0.5832

**Q.** And the Z score [6]?
**A.** −0.583

**Q.** And the Activity [7]?
**A.** no

**Q.** What does the source list for CS(=O)(=O)Nc1ccc([N+](=O)[O-])cc1Oc1ccccc1 [Nimesulide]?
**A.** Activity: yes; Z Score [8]: −2.395; Z score [1]: −2.395

**Q.** How did the “Z Score” value (LOPAC library screen at 3 μM, secondary neurosphere cultures, MTT) turn out when C[C@H]1c2cccc(O)c2C(=O)C2=C(O)[C@]3(O)C(=O)C(C(N)=O)=C(O)[C@@H](N(C)C)[C@@H]3[C@@H](O)[C@@H]21 [Doxycycline hydrochloride] was run?
**A.** −0.5578

**Q.** What about the Z score [6] of the same compound?
**A.** −0.558

**Q.** And the Activity [7]?
**A.** no

**Q.** With NC1(C(=O)O)CCC(C(=O)O)C1 (stereo not drawn) [trans-(B1)-ACPD] as the compound, how does the “Z Score” value read?
**A.** 0.3149

**Q.** 5-Bromo-2$$-deoxyuridine was tested. Which “Z Score” value did it give?
**A.** 2.58

**Q.** For CC(C)(C)c1onc(OCP(=O)(O)O)c1CC(N)C(=O)O (centres unmarked) [ATPO], which “Z Score” value is on record?
**A.** −1.68

**Q.** What about the Z score [3] of the same compound?
**A.** −1.680

**Q.** And the Activity [4]?
**A.** no

**Q.** For NC(=O)c1cnccn1 [Pyrazinecarboxamide], which “Z Score” value [8] is on record?
**A.** −1.617

**Q.** What about the Z score [1] of the same compound?
**A.** −1.617

**Q.** What about the Activity [10] of the same compound?
**A.** no

**Q.** Which “Z Score” value [8] does the source give for O=C(NCC1CCCCN1)c1cc(OCC(F)(F)F)ccc1OCC(F)(F)F (centres unmarked) [Flecainide acetate] here?
**A.** −1.498

**Q.** For COc1ccc2c(c1)c(CC(=O)N1CCOCC1)c(C)n2C(=O)c1ccc(Cl)cc1 [Indomethacin morpholinylamide], which “Z Score” value (168 h, 3 µM) is on record?
**A.** −3.398

**Q.** And the Z score (168 h, 3 µM)?
**A.** −3.398

**Q.** What about the Activity [2] of the same compound?
**A.** yes

**Q.** What does the source list for Cc1[nH]c(=O)c(C#N)cc1-c1ccncc1 [Milrinone]?
**A.** Z Score [9]: 0.05506; Z score [1]: 0.055; Activity [5]: no

**Q.** With OCCN1CCN(CCCN2c3ccccc3Sc3ccc(C(F)(F)F)cc32)CC1 [Fluphenazine dihydrochloride] as the compound, how does the “Z Score” value (168 h, 3 µM) read?
**A.** −10.2

**Q.** And the Z score (168 h, 3 µM)?
**A.** −10.197

**Q.** What about the Activity [2] of the same compound?
**A.** yes
